We go through one compound from patent US7973055B2, “Crystalline forms of a biphenyl compound” (Theravance, Inc., priority 2006, dated 2011).

Assay [1] has as its target T1, hM3 receptor (CHO cells) (Homo sapiens, UniProt P20309).
T1 construct: expressed in transfected cells
Nature of the assay: Blockade of agonist-mediated calcium release via FLIPR. Conditions: CHO cells stably expressing hM3, FLIPR; this or a similar assay. Type of assay: cell-based. The source says:
Muscarinic receptor subtypes (M1, M3 and M5 receptors), which couple to Gq proteins, activate the phospholipase C (PLC) pathway upon agonist binding to the receptor. As a result, activated PLC hydrolyzes phosphatyl inositol diphosphate (PIP2) to diacylglycerol (DAG) and […] (IP3), which in turn generates calcium release from intracellular stores, i.e., endoplasmic and sarcoplasmic reticulum. The FLIPR (Molecular Devices, Sunnyvale, Calif.) assay capitalizes on this increase in intracellular calcium by using a calcium sensitive dye (Fluo-4AM, Molecular Probes, Eugene, Oreg.) that fluoresces when free calcium binds. This fluorescence event was measured in real time by the FLIPR, which detected the change in fluorescence from a monolayer of cells cloned with human M1 and M3, and chimpanzee M5 receptors. Antagonist potency was determined by the ability of antagonists to inhibit agonist-mediated increases in intracellular calcium.
For FLIPR calcium stimulation assays, CHO cells stably expressing the hM1, hM3 and cM5 receptors were seeded into 96-well FLIPR plates the night before the assay was done. […]
To determine antagonist potency, the dose-dependent stimulation of intracellular Ca^2+ release for oxotremorine was first determined so that antagonist potency can later be measured against oxotremorine stimulation at an EC90 concentration. […]

Assay [2] addresses T2, hM2 receptor (CHO-K1 cells) (Homo sapiens, UniProt P08172).
T2 construct: expressed in transfected cells; host or cells: CHO-K1 cells
T2 sequence (P08172 1-466): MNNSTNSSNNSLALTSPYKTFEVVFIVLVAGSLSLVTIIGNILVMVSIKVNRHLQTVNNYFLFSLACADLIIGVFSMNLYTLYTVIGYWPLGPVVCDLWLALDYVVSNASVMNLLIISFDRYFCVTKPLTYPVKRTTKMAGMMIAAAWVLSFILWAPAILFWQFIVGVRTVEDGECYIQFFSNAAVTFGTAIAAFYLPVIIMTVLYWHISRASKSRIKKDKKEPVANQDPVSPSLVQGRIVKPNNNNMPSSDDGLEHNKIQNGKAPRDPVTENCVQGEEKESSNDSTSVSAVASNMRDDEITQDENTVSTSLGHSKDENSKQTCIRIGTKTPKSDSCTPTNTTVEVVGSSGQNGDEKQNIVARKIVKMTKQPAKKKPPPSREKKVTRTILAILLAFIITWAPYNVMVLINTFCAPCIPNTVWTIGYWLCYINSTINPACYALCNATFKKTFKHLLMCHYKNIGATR
Nature of the assay: Blockade of agonist-mediated [35S]GTPγS binding. Type of assay: biochemical. Conditions: CHO-K1 cells expressing hM2; this or a similar assay; read-out: Ki for blockade of oxotremorine-stimulated [35S]GTPγS binding. As to the method:
In a second functional assay, the functional potency of test compounds can be determined by measuring the ability of the compounds to block oxotremorine-stimulated [^35S]GTPγS binding in CHO-K1 cells expressing the hM2 receptor.
At the time of use, frozen membranes were thawed and then diluted in assay buffer with a final target tissue concentration of 5-10 μg protein per well. The membranes were briefly homogenized using a Polytron PT-2100 tissue disrupter and then added to the assay plates. The EC90 value (effective concentration for 90% maximal response) for stimulation of [^35S]GTPγS binding by the agonist oxotremorine was determined in each experiment.
To determine the ability of a test compound to inhibit oxotremorine-stimulated [^35S]GTPγS binding, the following was added to each well of 96 well plates: 25 μL of assay buffer with [^35S]GTPγS (0.4 nM), 25 μL of oxotremorine (EC90) and GDP (3 μM), 25 μL of diluted test compound and 25 μL CHO cell membranes expressing the hM2 receptor. […] Microscint-20 scintillation liquid (50 μL) was added to each well, and each plate was sealed and radioactivity counted on a topcounter (PerkinElmer). Data were analyzed by nonlinear regression analysis with the GraphPad Prism Software package (GraphPad Software, Inc., San Diego, Calif.) using the non-linear regression, one-site competition equation. […]

T1 sequence (P20309 whole entry): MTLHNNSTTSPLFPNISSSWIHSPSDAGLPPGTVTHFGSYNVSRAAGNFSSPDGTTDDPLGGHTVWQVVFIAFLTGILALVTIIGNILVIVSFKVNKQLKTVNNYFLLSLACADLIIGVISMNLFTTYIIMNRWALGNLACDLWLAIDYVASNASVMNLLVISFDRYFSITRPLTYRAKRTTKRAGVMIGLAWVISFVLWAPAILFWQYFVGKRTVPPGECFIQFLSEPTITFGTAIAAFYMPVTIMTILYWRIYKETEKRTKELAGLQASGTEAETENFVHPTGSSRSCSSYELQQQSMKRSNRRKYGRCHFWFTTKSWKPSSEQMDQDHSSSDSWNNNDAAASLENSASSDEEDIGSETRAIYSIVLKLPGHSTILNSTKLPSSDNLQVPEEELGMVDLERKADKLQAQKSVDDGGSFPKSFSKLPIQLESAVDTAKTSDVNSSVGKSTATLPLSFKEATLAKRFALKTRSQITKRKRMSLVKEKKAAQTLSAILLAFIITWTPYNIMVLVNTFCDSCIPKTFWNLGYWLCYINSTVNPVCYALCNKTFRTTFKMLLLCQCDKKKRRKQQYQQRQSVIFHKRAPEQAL

As a reminder, the Ki is a measure of affinity in units of concentration, obtained from inhibition or displacement. Take `CN(CCN1CCC(OC(=O)Nc2ccccc2-c2ccccc2)CC1)C(=O)c1cccc(C(=O)NCCNCc2ccc(O)cc2)c1` [compound of formula I, biphenyl-2-ylcarbamic acid 1-[2-({3-[2-(4-hydroxybenzylamino)ethylcarbamoyl]benzoyl}methylamino)ethyl]piperidin-4-yl ester]: the Ki in assay [1] and in assay [2] was under 10 nM throughout.
